Data from DBAASP.
Converted amounts (≈) assume the structure as drawn. Blank lines part the entries; values can stand above or below the compound they belong to.

Key:
Experiment in all cases: ≥ marks a high value that may be exact or a test limit, other limits are often not marked, values filed in µg/mL are converted to µM
[1] = test system: Achromobacter xylosoxidans
[2] = test system: Candida albicans
[3] = test system: Escherichia coli UB1005
[4] = test system: Pseudomonas aeruginosa M1251
[5] = test system: Pseudomonas aeruginosa M1426
[6] = test system: Pseudomonas aeruginosa M76
[7] = test system: Pseudomonas aeruginosa M917
[8] = test system: Pseudomonas aeruginosa PAO1
[9] = test system: Pseudomonas aeruginosa R70
[10] = test system: Pseudomonas fluorescens
[11] = test system: Ralstonia pickettii
[12] = test system: Salmonella enterica serovar Typhimurium
[13] = test system: Staphylococcus aureus
[14] = test system: Stenotrophomonas maltophilia
[15] = test system: Acinetobacter baumannii 97830
[16] = test system: Acinetobacter baumannii 9931
[17] = test system: Acinetobacter baumannii ATCC 19606
[18] = test system: Bacillus subtilis ATCC 23857
[19] = test system: Escherichia coli 780
[20] = test system: Escherichia coli 804
[21] = test system: Klebsiella pneumoniae ATCC 700603
[22] = test system: Pseudomonas aeruginosa 50
[23] = test system: Pseudomonas aeruginosa 73
[24] = test system: Pseudomonas aeruginosa ATCC 27853
[25] = test system: Pseudomonas aeruginosa ATCC 9027
[26] = test system: Staphylococcus aureus 113
[27] = test system: Staphylococcus aureus 75
[28] = test system: Staphylococcus aureus ATCC 29213
[29] = test system: Staphylococcus epidermidis ATCC 12228
[30] = test system: Fusarium graminearum
[31] = test system: Pseudomonas aeruginosa H374
[32] = test system: Pseudomonas aeruginosa H547
[33] = test system: Pseudomonas aeruginosa H744
[34] = test system: Pseudomonas aeruginosa K799
[35] = test system: Pseudomonas aeruginosa Z61
[36] = test system: Salmonella enterica subsp. enterica serovar Typhimurium ATCC 14028s

Structure (SMILES): CC(C)C[C@H](NC(=O)[C@H](C)NC(=O)[C@H](CCCCN)NC(=O)[C@H](CCCCN)NC(=O)[C@H](C)NC(=O)[C@H](CC(C)C)NC(=O)[C@H](CCCCN)NC(=O)[C@H](CCCCN)NC(=O)[C@H](CC(C)C)NC(=O)[C@H](CCCCN)NC(=O)[C@H](CCCCN)NC(=O)[C@H](CC(C)C)NC(=O)[C@H](CC(C)C)NC(=O)[C@H](CCCCN)NC(=O)[C@H](CCCCN)NC(=O)[C@H](CC(C)C)NC(=O)[C@H](C)NC(=O)[C@H](CCCCN)NC(=O)[C@H](CC(C)C)NC(=O)[C@H](C)NC(=O)[C@H](CC(C)C)NC(=O)[C@H](C)NC(=O)[C@@H](N)Cc1ccccc1)C(N)=O [FALALKALKKLLKKLKKLAKKAL]
MIC [1]: 12.4 µM (≈ 32 µg/mL)
MIC [2]: 24.8 µM (≈ 64 µg/mL)
MIC [3]: 1.55 µM (≈ 4 µg/mL)
MIC [4]: 6.2 µM (≈ 16 µg/mL)
MIC [5]: 6.2 µM (≈ 16 µg/mL)
MIC [6]: 12.4 µM (≈ 32 µg/mL)
MIC [7]: ≥ 49.6 µM
MIC [8]: 3.1 µM (≈ 8 µg/mL)
MIC [9]: 6.2 µM (≈ 16 µg/mL)
MIC [10]: 3.1 µM (≈ 8 µg/mL)
MIC [11]: 1.55 µM (≈ 4 µg/mL)
MIC [12]: 3.1 µM (≈ 8 µg/mL)
MIC [13]: 3.1 µM (≈ 8 µg/mL)
MIC [14]: 1.55 µM (≈ 4 µg/mL)

MIC [15]: 8 µM (≈ 11.9 µg/mL)
MIC [16]: 16 µM (≈ 23.8 µg/mL)
MIC [17]: 16 µM (≈ 23.8 µg/mL)
MIC [18]: 4 µM (≈ 5.95 µg/mL)
MIC [19]: 16 µM (≈ 23.8 µg/mL)
MIC [20]: ≥ 32 µM
MIC [21]: 8 µM (≈ 11.9 µg/mL)
MIC [22]: ≥ 32 µM
MIC [23]: ≥ 64 µM
MIC [24]: 128 µM (≈ 190 µg/mL)
MIC [25]: 32 µM (≈ 47.6 µg/mL)
MIC [26]: 4 µM (≈ 5.95 µg/mL)
MIC [27]: 4 µM (≈ 5.95 µg/mL)
MIC [28]: 4 µM (≈ 5.95 µg/mL)
MIC [29]: 4 µM (≈ 5.95 µg/mL)
Structure (SMILES): CC(C)C[C@H](NC(=O)[C@H](Cc1c[nH]c2ccccc12)NC(=O)[C@H](CCCN=C(N)N)NC(=O)[C@H](Cc1c[nH]c2ccccc12)NC(=O)[C@H](Cc1c[nH]c2ccccc12)NC(=O)[C@H](Cc1c[nH]c2ccccc12)NC(=O)[C@H](CCCN=C(N)N)NC(=O)[C@H](Cc1c[nH]c2ccccc12)NC(=O)[C@@H](N)CC(C)C)C(N)=O [LWRWWWRWL]

MIC [30]: 20 µM (≈ 39.8 µg/mL)
Structure (SMILES): CSCC[C@H](NC(=O)[C@H](Cc1cnc[nH]1)NC(=O)[C@H](CCCCN)NC(=O)CNC(=O)[C@H](CC(N)=O)NC(=O)[C@H](CCCN=C(N)N)NC(=O)[C@@H](NC(=O)[C@H](Cc1cnc[nH]1)NC(=O)[C@H](CS)NC(=O)[C@H](C)NC(=O)CNC(=O)[C@H](Cc1cnc[nH]1)NC(=O)[C@@H](NC(=O)[C@H](C)NC(=O)CNC(=O)[C@H](CCC(=O)O)NC(=O)[C@@H](N)Cc1c[nH]c2ccccc12)C(C)C)C(C)C)C(=O)N[C@@H](CS)C(=O)O [WEGAVHGACHVRNGKHMC]

MIC [3]: 4.75 µM (≈ 11 µg/mL)
MIC [31]: 27.6 µM (≈ 64 µg/mL)
MIC [32]: 27.6 µM (≈ 64 µg/mL)
MIC [33]: 27.6 µM (≈ 64 µg/mL)
MIC [34]: 27.6 µM (≈ 64 µg/mL)
MIC [35]: 27.6 µM (≈ 64 µg/mL)
MIC [36]: 27.6 µM (≈ 64 µg/mL)
Structure (SMILES): CC[C@H](C)[C@H](NC(=O)[C@H](Cc1ccccc1)NC(=O)[C@H](CO)NC(=O)[C@H](CCCCN)NC(=O)[C@H](Cc1ccccc1)NC(=O)[C@@H](NC(=O)[C@H](CCCCN)NC(=O)[C@@H](N)Cc1c[nH]c2ccccc12)C(C)C)C(=O)N[C@@H](CCCCN)C(=O)N[C@@H](CCCCN)C(=O)N[C@@H](C)C(=O)N[C@@H](CO)C(=O)N[C@@H](CO)C(=O)N[C@@H](Cc1ccccc1)C(=O)N[C@@H](C)C(=O)N[C@@H](CCC(N)=O)C(=O)N[C@@H](CO)C(=O)N[C@H](C(=O)N[C@@H](CC(C)C)C(=O)N[C@@H](CC(=O)O)C(=O)O)C(C)C [WKVFKSFIKKASSFAQSVLD]
